# Source: patent US7070780B2, “Treatment of demyelinating autoimmune disease with ordered peptides” (Board of Trustees of the Leland Stanford Junior University, priority 1999, dated 2006)
# Entries after “also recorded” stand apart in the source; their conditions may differ.
# How the values were obtained:
# [1] = test system: experimental autoimmune encephalomyelitis in Lewis rats; test: EAE treatment in Lewis rats immunized with MBPp85–99; type: in vivo; conditions: EAE induced with MBPp85–99, single intraperitoneal dose of 0.5 mg peptide in PBS at disease onset
# Procedure: FIG. 1 is a graph depicting the prevention of EAE in rats treated with ordered peptides. […] Animals were injected with an emulsion of 0.1 mg of MBPp85–99 in complete Freund's adjuvant for EAE induction. Ten days later, when the clinical manifestations of disease became apparent, a single intra-peritoneal dose of peptide {SEQ ID NO:4} EYYKEYYKEYYK (squares), {SEQ ID NO:5} KYYKYYKYYKYY (triangles), or PBS (circles)was administered. Results are expressed as mean disease score of groups of six animals.
# Animals. Female Lewis rats (6–8 weeks old), were purchased from Harlan Sprague Dawley (Indianapolis, Ind.)
# Peptides. For immunization and disease reversal, peptides were synthesized on a peptide synthesizer (model 9050: MilliGen, Burlington, Mass.) by standard 9-fluorenylmethoxycarbonyl chemistry. Peptides were purified by HPLC. Structure was confirmed by amino acid analysis and mass spectroscopy. Peptides used for the experiments were: {SEQ ID NO:11} ENPVVHFFKNIVTPR (MBPp85–99), {SEQ ID NO:4} EYYKEYYKEYYK, {SEQ ID NO:5} KYYKYYKYYKYY.
# EAE Induction. […] Experimental animals were scored as follows: 0, no clinical disease; 1, tail weakness or paralysis; 2, hind limb weakness; 3, hind limb paralysis; 4, forelimb weakness or paralysis; 5, moribund or dead animal.
# EAE Treatment. Rats previously immunized with MBPp85–99 for EAE induction were scored from day eight after peptide injection. […]
# anti-MBP antibodies = test: Inhibition of autoantibody binding to MBP (anti-MBP antibodies affinity-purified from CNS lesions); conditions: anti-MBP antibodies from CNS lesions of 12 post-mortem cases
# Text: Previously, we have compared the structural requirements for autoantibody recognition to those of T cell clones reactive to MBP p87–99. Anti-MBP antibodies were affinity-purified from CNS lesions of 12 post-mortem cases studied. The MBP p87–99 peptide was immunodominant in all cases and it inhibited autoantibody binding to MBP by more than 95%. Residues contributing to autoantibody binding were located in a 10-amino acid segment p86–95 ({SEQ ID NO:9} VVHFFKNIVT) that also contained the MHC-T cell receptor contact residues for T cells recognizing MBP in the context of DRB1*1501 and DQB1*0602. In the epitope center, the same residues, {SEQ ID NO:10} VHFFK, were important for T cell binding and MHC recognition. Recently, the crystal structure of HLA-DR2 with MBPp85–99 was solved, confirming the prediction that K91 is the major TCR contact residue, while F90 is a major anchor into the hydrophobic P4 pocket of the MHC molecule.
Substance,effect on EAE (mean disease score) [1],inhibition of autoantibody binding to MBP (anti-MBP antibodies)
EYYKEYYKEYYK [ordered peptide of the repeated motif EYYK (n=3)],prevents the development of EAE; also recorded: effective in preventing and treating experimental autoimmune encephalomyelitis,–
"MBP p87–99: peptide of residues 87–99 of myelin basic protein, immunodominant epitope (SRPHLIRLFSRDA; UniProt P02686 87-99, looked up, fragment)",–,more than 95%
